According to ChEMBL document CHEMBL3872249, “Computer design, synthesis, and bioactivity analyses of drugs like fingolimod used in the treatment of multiple sclerosis” (Bioorg Med Chem, 2017):
Calls of active or inactive are those of the source. No cut-off for these calls is given here.

What was measured:
SH-SY5Y [1] = test: Effect on ICAM1 mRNA expression in human SH-SY5Y cells at EC10 by qPCR method relative to beta-actin; type: functional
[2] = Cytotoxicity against human SH-SY5Y cells measured after 24 hrs by crystal-violet staining based assay; type: toxicity, cell-based
SH-SY5Y [3] = test: Effect on TNFRSF1A mRNA expression in human SH-SY5Y cells at EC10 by qPCR method relative to beta-actin; type: functional
SH-SY5Y [4] = test: Effect on S1PR1 mRNA expression in human SH-SY5Y cells at EC10 by qPCR method relative to beta-actin; type: functional
SH-SY5Y [5] = test: Effect on CCL2 mRNA expression in human SH-SY5Y cells at EC10 by qPCR method relative to beta-actin; type: functional
[6] = biological target: Sphingosine 1-phosphate receptor 1 (Homo sapiens) (UniProt P21453); test: Agonist activity at sphingosine-1-phosphate receptor (unknown origin) expressed in HEK293 cells assessed as increase in cAMP level at EC10 after 18 hrs by CRE-responsive renilla luciferase reporter gene assay; type: functional, cell-based
[7] = biological target: Sphingosine 1-phosphate receptor 1 (Homo sapiens) (UniProt P21453); test: Agonist activity at sphingosine-1-phosphate receptor in human SH-SY5Y cells assessed as increase in cAMP level at EC10 by direct immunoassay; type: functional, cell-based
SK-N-SH [8] = test: Effect on TNFRSF1A mRNA expression in human SK-N-SH cells at EC10 by qPCR method relative to beta-actin; type: functional
SK-N-SH [9] = test: Effect on ADORA2A mRNA expression in human SK-N-SH cells at EC10 by qPCR method relative to beta-actin; type: functional
U-118-MG [10] = test: Effect on ADCY5 mRNA expression in human U118MG cells at EC10 by qPCR method relative to beta-actin; type: functional
[11] = biological target: Sphingosine 1-phosphate receptor 1 (Homo sapiens) (UniProt P21453); test: Agonist activity at sphingosine-1-phosphate receptor in human U118MG cells assessed as increase in cAMP level at EC10 by direct immunoassay; type: functional, cell-based; details: U-118-MG
SK-N-SH [12] = test: Effect on PMP22 mRNA expression in human SK-N-SH cells at EC10 by qPCR method relative to beta-actin; type: functional
SH-SY5Y [13] = test: Effect on MMP9 mRNA expression in human SH-SY5Y cells at EC10 by qPCR method relative to beta-actin; type: functional
SK-N-SH [14] = test: Effect on ADCY5 mRNA expression in human SK-N-SH cells at EC10 by qPCR method relative to beta-actin; type: functional
SH-SY5Y [15] = test: Effect on GNAS mRNA expression in human SH-SY5Y cells at EC10 by qPCR method relative to beta-actin; type: functional
SK-N-SH [16] = test: Effect on IL10 mRNA expression in human SK-N-SH cells at EC10 by qPCR method relative to beta-actin; type: functional
U-118-MG [17] = test: Effect on IL10 mRNA expression in human U118MG cells at EC10 by qPCR method relative to beta-actin; type: functional
SH-SY5Y [18] = test: Effect on DRD2 mRNA expression in human SH-SY5Y cells at EC10 by qPCR method relative to beta-actin; type: functional
U-118-MG [19] = test: Effect on PMP22 mRNA expression in human U118MG cells at EC10 by qPCR method relative to beta-actin; type: functional
SH-SY5Y [20] = test: Effect on IL6 mRNA expression in human SH-SY5Y cells at EC10 by qPCR method relative to beta-actin; type: functional
SK-N-SH [21] = test: Effect on CCL2 mRNA expression in human SK-N-SH cells at EC10 by qPCR method relative to beta-actin; type: functional
SK-N-SH [22] = test: Effect on TNF mRNA expression in human SK-N-SH cells at EC10 by qPCR method relative to beta-actin; type: functional
SK-N-SH [23] = test: Effect on IL6 mRNA expression in human SK-N-SH cells at EC10 by qPCR method relative to beta-actin; type: functional
U-118-MG [24] = test: Effect on TNF mRNA expression in human U118MG cells at EC10 by qPCR method relative to beta-actin; type: functional
SK-N-SH [25] = test: Effect on GNAS mRNA expression in human SK-N-SH cells at EC10 by qPCR method relative to beta-actin; type: functional
U-118-MG [26] = test: Effect on ADORA2A mRNA expression in human U118MG cells at EC10 by qPCR method relative to beta-actin; type: functional
SH-SY5Y [27] = test: Effect on VCAM1 mRNA expression in human SH-SY5Y cells at EC10 by qPCR method relative to beta-actin; type: functional
SH-SY5Y [28] = test: Effect on NFKB1 mRNA expression in human SH-SY5Y cells at EC10 by qPCR method relative to beta-actin; type: functional
SH-SY5Y [29] = test: Effect on PMP22 mRNA expression in human SH-SY5Y cells at EC10 by qPCR method relative to beta-actin; type: functional
SK-N-SH [30] = test: Effect on CXCL10 mRNA expression in human SK-N-SH cells at EC10 by qPCR method relative to beta-actin; type: functional
SH-SY5Y [31] = test: Effect on CXCL10 mRNA expression in human SH-SY5Y cells at EC10 by qPCR method relative to beta-actin; type: functional
U-118-MG [32] = test: Effect on ICAM1 mRNA expression in human U118MG cells at EC10 by qPCR method relative to beta-actin; type: functional
SK-N-SH [33] = test: Effect on EPHA1 mRNA expression in human SK-N-SH cells at EC10 by qPCR method relative to beta-actin; type: functional
SH-SY5Y [34] = test: Effect on TNF mRNA expression in human SH-SY5Y cells at EC10 by qPCR method relative to beta-actin; type: functional
SH-SY5Y [35] = test: Effect on ADCY5 mRNA expression in human SH-SY5Y cells at EC10 by qPCR method relative to beta-actin; type: functional
U-118-MG [36] = test: Effect on VCAM1 mRNA expression in human U118MG cells at EC10 by qPCR method relative to beta-actin; type: functional
U-118-MG [37] = test: Effect on NFKB1 mRNA expression in human U118MG cells at EC10 by qPCR method relative to beta-actin; type: functional
[38] = Cytotoxicity against human SK-N-SH cells measured after 24 hrs by crystal-violet staining based assay; type: toxicity, cell-based
[39] = biological target: Sphingosine 1-phosphate receptor 1 (Homo sapiens) (UniProt P21453); test: Agonist activity at sphingosine-1-phosphate receptor human SK-N-SH cells assessed as increase in cAMP level at EC10 by direct immunoassay; type: functional, cell-based
SH-SY5Y [40] = test: Effect on ADORA2A mRNA expression in human SH-SY5Y cells at EC10 by qPCR method relative to beta-actin; type: functional
U-118-MG [41] = test: Effect on GNAS mRNA expression in human U118MG cells at EC10 by qPCR method relative to beta-actin; type: functional
SK-N-SH [42] = test: Effect on S1PR1 mRNA expression in human SK-N-SH cells at EC10 by qPCR method relative to beta-actin; type: functional
SH-SY5Y [43] = test: Effect on IL10 mRNA expression in human SH-SY5Y cells at EC10 by qPCR method relative to beta-actin; type: functional

Sphingosine 1-phosphate receptor 1 (Homo sapiens), sequence (P21453 whole entry): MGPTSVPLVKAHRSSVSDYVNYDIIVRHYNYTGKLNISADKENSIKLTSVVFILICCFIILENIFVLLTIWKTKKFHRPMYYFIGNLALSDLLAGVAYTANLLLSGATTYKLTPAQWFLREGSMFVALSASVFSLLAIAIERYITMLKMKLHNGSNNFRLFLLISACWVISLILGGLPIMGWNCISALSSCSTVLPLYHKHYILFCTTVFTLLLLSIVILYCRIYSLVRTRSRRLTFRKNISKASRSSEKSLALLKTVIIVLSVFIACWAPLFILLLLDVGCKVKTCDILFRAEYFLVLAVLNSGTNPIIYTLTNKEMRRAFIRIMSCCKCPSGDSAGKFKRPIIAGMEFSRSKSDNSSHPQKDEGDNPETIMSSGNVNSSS

CCCCCCCCn1nnnc1CCC(N)(CO)CO.Cl
fold change (FC) (SH-SY5Y [1]): -7.3035 | EC10 [2]: 0.45 µM | fold change (FC) (SH-SY5Y [3]): -6.2787 | fold change (FC) (SH-SY5Y [4]): -4.2848 | fold change (FC) (SH-SY5Y [5]): -3.0787 | Activity [6]: Active | Activity [7]: Active | fold change (FC) (SK-N-SH [8]): -3.6537 | fold change (FC) (SK-N-SH [9]): -5.915 | fold change (FC) (U-118-MG [10]): -5.787 | Activity [11]: Active | fold change (FC) (SK-N-SH [12]): -4.1464 | fold change (FC) (SH-SY5Y [13]): -5.7901 | fold change (FC) (SK-N-SH [14]): -4.4983 | fold change (FC) (SH-SY5Y [15]): -8.1531 | fold change (FC) (SK-N-SH [16]): -7.7375 | fold change (FC) (U-118-MG [17]): -2.5669 | fold change (FC) (SH-SY5Y [18]): -3.3881 | fold change (FC) (U-118-MG [19]): -5.1248 | fold change (FC) (SH-SY5Y [20]): -4.4551 | fold change (FC) (SK-N-SH [21]): -8.981 | fold change (FC) (SK-N-SH [22]): -7.8456 | fold change (FC) (SK-N-SH [23]): -11.9743 | fold change (FC) (U-118-MG [24]): -5.8487 | fold change (FC) (SK-N-SH [25]): -7.631 | fold change (FC) (U-118-MG [26]): -5.0641 | fold change (FC) (SH-SY5Y [27]): -5.2706 | fold change (FC) (SH-SY5Y [28]): -3.8433 | fold change (FC) (SH-SY5Y [29]): -3.5921 | fold change (FC) (SK-N-SH [30]): -4.7219 | fold change (FC) (SH-SY5Y [31]): -3.4279 | fold change (FC) (U-118-MG [32]): -5.127 | fold change (FC) (SK-N-SH [33]): -7.9001 | fold change (FC) (SH-SY5Y [34]): -3.2642 | fold change (FC) (SH-SY5Y [35]): -5.9067 | fold change (FC) (U-118-MG [36]): -3.8654 | fold change (FC) (U-118-MG [37]): -2.6004 | EC10 [38]: 0.37 µM | Activity [39]: Active | fold change (FC) (SH-SY5Y [40]): -6.5966 | fold change (FC) (U-118-MG [41]): -2.9212 | fold change (FC) (SK-N-SH [42]): -4.3001 | fold change (FC) (SH-SY5Y [43]): -7.3448
